Experiment [1] concerns 2LMP and SUM159 ALDH+ tumorsphere cells. Put plainly: Secondary tumorsphere formation. The format is cell-based, human. As to conditions: 2LMP and SUM159 sphere cells; TRAIL and 2E12 at concentrations equimolar to TRA-8. As for the experimental part:
Bars are normalized relative to untreated control and represent quadruplicate runs. Error bars denote standard deviation (SD).
(§1) • Drugs and Antibodies. Adriamycin and Taxol were purchased from Sigma Aldrich Chemical Co. (St. Louis, Mo.) and prepared as 10 mM stock solutions in distilled H2O or DMSO, respectively. Purified TRA-8 (IgG1) mAb was prepared as described previously (Ichikawa et al., Nat. Med. 7:954-60 (2001) and WO01/83560). Isotype-specific IgG1 control antibody was obtained from Southern Biotechnology Associates (Birmingham, Ala.). Anti-DR4 mAb 2E12 (IgG1, k) was described previously (WO03/37913). Super Killer TRAIL™ was purchased from Alexis Biochemicals (Plymouth Meeting, Pa.). Conjugated antibodies APC mouse anti-human CD44, PE-Cy7 rat anti-mouse CD44, and corresponding isotype control antibodies were purchased from BD Pharmingen (San Jose, Calif.). ALDEFLUOR® kit including diethylaminobenzaldehyde (DEAB) negative control was obtained from StemCell Technologies (Durham, N.C.). Cleaved caspase-8 rabbit mAb and cleaved caspase-3 rabbit mAb were purchased from Cell Signaling (Billerica, Mass.). Secondary antibodies, Alexa tluor 405 goat anti-rabbit IgG and Alexa fluor 647 goat anti-mouse IgG1 were purchased from Invitrogen (Carlsbad, Calif.). • Cells and Cell Culture. The 2LMP subclone of the human breast cancer cell line MDA-MB-231 was maintained in improved MEM supplemented with 10% FBS (Hyclone; Logan, Utah). […] BCSC markers were analyzed on attached bulk cell populations. […] Samples were sorted on a Becton-Dickinson-FACSAriaII™ or analyzed on Becton-Dickinson-LSRII™ flow cytometer (Chicago, Ill.). Data were evaluated using FlowJo software (FlowJo; Ashland, Oreg.). • DR5 Expression and Functional Caspase Activation. […] Samples were analyzed by flow cytometry for DR5 expression on the ALDH^+/CD44^+/CD24^− subpopulation. […]

A further experiment has as its system SUM159 ALDH+ cells. Put plainly: Ex vivo treatment of sorted BCSC and tumor implantation. As to conditions: cells treated ex vivo with 500 nM Adriamycin for 3 hours, implanted into mammary fat pad. In kind it is in vivo, NOD/SCID mice. As for the experimental part: (§2) FIGS. 14A and 14B are graphs showing ex vivo treatment of sorted BCSCs inhibited tumorigenesis and progression in NOD/SCID mice. The graphs represent average tumor size (product of two diameters).
as §1, with “Calif.).” for “Calif.). ALDEFLUOR® kit including diethylaminobenzaldehyde (DEAB) negative control was obtained from StemCell Technologies (Durham, N.C.). Cleaved caspase-8 rabbit mAb and cleaved caspase-3 rabbit mAb were purchased from Cell Signaling (Billerica, Mass.). Secondary antibodies, Alexa tluor 405 goat anti-rabbit IgG and Alexa fluor 647 goat anti-mouse IgG1 were purchased from Invitrogen (Carlsbad, Calif.). • Cells and Cell Culture. The 2LMP subclone of the human breast cancer cell line MDA-MB-231 was maintained in improved MEM supplemented with 10% FBS (Hyclone; Logan, Utah).”

Experiment [2] has as its system 2LMP ALDH+ cells. The experiment is described as above. The format is in vivo, NOD/SCID mice. To be noted: cells treated ex vivo with 500 nM Adriamycin for 3 hours, 4×10^4 cells into mammary fat pad; by day 51. As for the experimental part: as §2
as §1, with “Calif.).” for “Calif.). ALDEFLUOR® kit including diethylaminobenzaldehyde (DEAB) negative control was obtained from StemCell Technologies (Durham, N.C.). Cleaved caspase-8 rabbit mAb and cleaved caspase-3 rabbit mAb were purchased from Cell Signaling (Billerica, Mass.). Secondary antibodies, Alexa tluor 405 goat anti-rabbit IgG and Alexa fluor 647 goat anti-mouse IgG1 were purchased from Invitrogen (Carlsbad, Calif.). • Cells and Cell Culture. The 2LMP subclone of the human breast cancer cell line MDA-MB-231 was maintained in improved MEM supplemented with 10% FBS (Hyclone; Logan, Utah).”

Experiment [3] deals with 2LMP ALDH+ cells. Put plainly: Annexin V-propidium iodide apoptosis assay (flow cytometry). The format is cell-based, human. To be noted: 5 μM MRK003. As for the experimental part: 2LMP ALDH^+ cells were sorted by flow cytometry and treated with MRK003 GSI (or DMSO) for 24 hours followed by TRA-8 (or media) for an additional 24 hours before measuring ATP levels. […] Similar results were found in studies using CSC-enriched cell populations derived from sphere cultures. The results were confirmed using annexin V-propidium iodide assays and flow cytometry to measure apoptosis.
On the technique in general: In flow cytometry, cells or beads pass a laser one at a time.

Here are results for four molecules from patent publication US8703712B2, “Targeting cancer stem cells with DR5 agonists” (The UAB Research Foundation, priority 2011, dated 2014).

In the case of `COc1cccc2c1C(=O)c1c(O)c3c(c(O)c1C2=O)C[C@@](O)(C(=O)CO)C[C@@H]3O[C@H]1C[C@H](N)[C@H](O)[C@H](C)O1` [Adriamycin], the “inhibition of secondary tumorsphere formation (in words)” value (from here on “inhibition”) in experiment [1] is “did not completely inhibit”. Besides, the “mice that developed tumors” value with SUM159 ALDH+ cells is “zero out of five”; in the experiment on 2LMP ALDH+ cells [2] it was “Five out of five”. The molecule `O=S1(=O)N[C@@]2(CN1CC(F)(F)F)[C@@H]1CC[C@H]2Cc2ccc(/C=C/CN3CCC(C(F)(F)F)CC3)cc2C1` [MRK003] came in with an annexin-V-positive with 2LMP ALDH+ cells [3] of 36%. Regarding `CC(=O)O[C@H]1C(=O)[C@@]2(C)[C@H]([C@H](OC(=O)c3ccccc3)[C@]3(O)C[C@H](OC(=O)[C@H](O)[C@@H](NC(=O)c4ccccc4)c4ccccc4)C(C)=C1C3(C)C)[C@]1(OC(C)=O)CO[C@@H]1C[C@@H]2O` [Taxol], the “inhibition” value in experiment [1] is given as “did not completely inhibit”.

B1: TRAIL: Super Killer TRAIL™ purchased from Alexis Biochemicals; death receptor ligand (protein, UniProt P50591 39-281, looked up)
extracellular domain: TNELKQMQDKYSKSGIACFLKEDDSYWDPNDEESMNSPCWQVKWQLRQLVRKMILRTSEETISTVQEKQQNISPLVRERGPQRVAAHITGTRGRSNTLSSPNSKNEKALGRKINSWESSRSGHSFLSNLHLRNGELVIHEKGFYYIYSQTYFRFQEEIKENTKNDKQMVQYIYKYTSYPDPILLMKSARNSCWSKDAEYGLYSIYQGGIFELKENDRIFVSVTNEHLIDMDHEASFFGAFLVG
modifications: extracellular domain Super Killer TRAIL engineered soluble form
notes: Super Killer TRAIL™ purchased from Alexis Biochemicals; death receptor ligand
B1: the “inhibition” value in experiment [1] is on record as “only partially inhibitory”.
